Assay results taken from PMC5704913 (Toxicology and applied pharmacology, 2017).
pIC50: −log10 of the molar value. Entries after “also recorded” stand apart in the source; their conditions may differ.

Columns and labels:
SOD activity assay = type: biochemical; details: unit = amount that inhibits one-half the formation of adrenochrome at pH 10.2
H2O2 scavenging assay = type: biochemical; details: read-out: H2O2 IC50; concentration that scavenged 50% of H2O2; 50 µM H2O2, 1 minute
[1] = system: respiring brain mitochondria; details: ref Castello et al., 2008; cited from earlier work
MPTP-treated mice = details: oral administration; ref Liang et al., 2007; cited from earlier work
[2] = Brain manganese levels by ICPMS after 7 days daily dosing; type: in vivo, C57BL/6 mice; details: 15 mg/kg i.p. daily for 7 days
C57BL/6 mice = assay: Open field test and accelerated rotarod test; type: in vivo; details: 15 mg/kg i.p. daily for 7 days

For COC(=O)c1c2nc(c(C(F)(F)F)c3ccc([n-]3)c(C(=O)OC)c3nc(c(C(F)(F)F)c4ccc1[n-]4)C=C3)C=C2.[Cl-].[Mn+3] [AEOL 11207], the “SOD Activity” value (SOD activity assay) is given as 124 U/mg, the pIC50 (H2O2 scavenging assay) is given as 6.98 and the “H2O2 scavenging in respiring brain mitochondria (in words)” value [1] is given as “potent H2O2 scavengers”. For the same compound, the “effect on MPTP-induced neurotoxicity (in words)” value (MPTP-treated mice) was “inhibited MPTP-induced neurotoxicity”.
With [Cl][Mn][Cl] [MnCl2] the “brain manganese levels vs vehicle (in words)” value [2] was “increased brain manganese levels significantly”, the “increase of brain manganese levels” value [2] was ~ 10 fold and the “neurobehavioral changes (open field, rotarod) vs vehicle” value (C57BL/6 mice) was “significant deficit in movement; also recorded: significant rotarod deficit”.
